Source: patent publication US9150899B2, “Identification of compounds modifying a cellular response” (2cureX, priority 2004, dated 2015)
Non-standard residues stand in square brackets, D forms with d. No end group written: not given here.

System: GFP expressing U2OS cells and GFP expressing Hek293 cells
Assay: Screening of adhesion D-amino peptide library for low fluorescence/high adherence properties
Format: cell-based, Human
Conditions: re-synthesized adhesion peptides on PEGA beads; six re-synthesized plus four additional peptides compared
Experimental: Approx. 100 adhesion peptide library beads were mixed with 1×10E6 cells (BHK, CHO, U2OS, Hek) in each well of a Falcon 12 well plate using 2 ml growth medium. The adhesion peptide library was prepared according to the general methods for solid phase peptide synthesis outlined above. The library consisted of heptamers of D-amino acids. The peptide library beads were PEGA beads each coupled to a potential adhesion peptide. The cells and beads were mixed gently every 15 min for 2 hrs. Supernatant with non-attached cells were removed and new growth medium added. Cells/beads were incubating for another 16 hrs. (37° C., 5% CO2). Cell adhesive beads were identified using a microscope with 10× objective and positive beads were transferred to a filter paper (to suck off medium). Peptides were identified by amino acid sequencing.
An adhesion D-amino peptide library was synthesized (500.000 members) as described above in Example 2a and screened for low fluorescence/high adherence properties. This was done in 4 steps: • 1) Selection of low fluorescent beads by Fluorescence Activated Bead Sorting (FABS). […]
The 150.000 low fluorescent beads were incubated with GFP expressing U2OS cells followed by FABS sorting for high fluorescence (high cell adhesion). […] 47 beads with high cell adhesion properties were isolated using a fluorescence microscope. • 4) Sequence elucidation and re-synthesis of selected peptides. […]

SEQ ID 35: adhesion peptide arg gln arg ile arg (D-amino acids) ([dR][dQ][dR][dI][dR])
overall performance (low fluorescence/high adherence properties): best overall performance
